From patent US3968233A, “α-Amino-γ-butyrolactones as sedatives” (priority 1975, dated 1976)
“Also recorded” adds a separate entry of the source.

Columns and labels:
[1] = Subacute toxicity, daily oral dosing for 6 consecutive days; assay type: in vivo, rat; details: 500 mg/kg daily for 6 consecutive days
Experimental: Accordingly, 8 rats were given 500 mg/kg daily for 6 consecutive days.

[2] = Clinical trial, 1st group: insomnia; assay type: in vivo, human; details: 400-600 mg one dose at night, 5 to 15 days; seven patients
Experimental: (§1) Clinical trials were performed on three groups of patients, partly hospitalized patients and partly outpatients. It was determined that the effect observed in the experimental pharmacological studies were useful in the treatment of humans as well.
Seven patients complaining of insomnia were treated for a period of time varying from 5 to 15 days. The daily dose was 400-600 mg given as one dose at night.

[3] = Protective effect against electroshock (MES); details: AP-28 250 mg/kg i.p., 10 minutes before electroshock
[4] = Diuresis in water-loaded rats; assay type: in vivo, rat
Experimental: (§2) The effect of a single 500 mg/kg oral dose of AP-28 was determined on (a) diuresis in water-loaded rats, (b) choleresis, (c) the excretion rate of intravenously-injected bromosulfonphthalein in bile, (d) arterial blood pressure.

[5] = Clinical studies, overall; assay type: in vivo, human; details: humans
Experimental: as §1

Choleresis = assay type: in vivo; details: single 500 mg/kg oral dose
Experimental: as §2

[6] = Time to death by slow intravenous infusion of strychnine; assay type: in vivo, mouse; details: for mean infusion time to cause animals to die: strychnine infusion 0.25 ml/min
Experimental: (3) continuous intravenous infusion at constant rate (0.4 ml/min) of a strychnine sulfate solution (26.66 mg/l) was carried out by injection through a tail vein into mice until they died. One group of animals received 500 mg/kg of AP-28 as preliminary treatment 15 minutes prior to the beginning of infusion. The mean infusion time to cause six control animals to die was 134 ± 3.2 seconds (mean ± SE). The mean infusion time required to obtain the same effect in animals pretreated with AP-28 was 210 ± 6.1 seconds.
In another experiment the infusion rate of strychnine was lowered to 0.25 ml/min. Under this condition, the mean infusion time was 246 ± 3.1 seconds in the case of controls (six animals) and 338 ± 24.3 seconds in that of treated animals.
When the same infusion rate as above was maintained and the amount of AP-28 was reduced to 250 mg/kg, the mean infusion time was 260 ± 13.4 seconds with control animals and 360 ± 21.2 seconds with treated animals.

[7] = Clinical trial, 2nd group: strain and anxiety; assay type: in vivo, human; details: 500 to 1500 mg/day
Experimental: as §1
The dose levels used with these patients varied between 500 and 1500 mg/day, divided into two or three doses which were given during the day.

[8] = Clinical trial, 3rd group: essential epilepsy; assay type: in vivo, human; details: 0.500 to 1.500 g daily, 10 to 30 days
Experimental: as §1
Four patients suffering from essential epilepsy were treated for periods of time varying between 10 and 30 days with daily doses ranging from 0.500 to 1.500 g. […] In the fourth patient it was possible to lower the anti-epileptic massive therapy they had been following for some time, and on which they were maintained throughout this study, by more than 50%.

[9] = Protective effect against strychnine (single injection); assay type: in vivo, mouse; details: 30 minutes before strychnine
Experimental: This type of antagonism was evaluated in the mouse in three ways, namely: (1) protection from death from one hypodermic injection of strychnine: (2) evaluation of the LD50 of strychnine in mice both treated and untreated with AP-28, and (3) influence on the time required to cause animals to die by slow intravenous perfusion of strychnine. […] Groups of six mice were used. (2) increasing amounts of strychnine sulfate were injected hypodermically. In two experiments 200 or 400 mg/kg of intraperitoneal AP-28 were given 30 minutes prior to strychnine injection and the LD50 was calculated. The following results were obtained (95-percent confidence limits): […]

[10] = Spontaneous mobility (light beam interruptions); assay type: in vivo, mouse
Experimental: Several groups of four mice each were placed in an apparatus designed to provide a measure of spontaneous mobility by counting the number of interruptions of a light beam for a period of 10 minutes. After preliminary measurement of mobility, animals were injected with AP-28 (250 and 500 mg/kg) intraperitoneally. Control animals received saline solution. Ten minutes thereafter the measurement of mobility was repeated. Five groups of mice were used as controls and six other groups were treated with varying doses of AP-28.

[11] = Acute toxicity of AP-28 in the rat; assay type: in vivo, rat (Wistar-Morini Strain); details: for Died/treated: in 24 hours; for Remarks: oral
Experimental: AP-28 was administered to adult rats (Wistar-Morini Strain) of both sexes after fasting overnight. It was administered in an aqueous 1-percent suspension of tragacanth gum orally by gastric probe or intraperitoneally.

Arterial blood pressure = assay type: in vivo; details: single 500 mg/kg oral dose
Experimental: as §2

[12] = oral (gastric probe), 250 mg/kg
[13] = oral (gastric probe), 500 mg/kg
[14] = oral (gastric probe), 1000 mg/kg
[15] = oral (gastric probe), 1500 mg/kg
[16] = oral (gastric probe), 2000 mg/kg

CCCCOC(=O)NC1CCOC1=O (stereo not drawn) [AP-28, α-n-butoxycarbonyl-amino-γ-butyrolactone]
sedative effect or other abnormal symptoms [1]: No sedative effect or other abnormal symptoms were observed
tendency to accumulate in the organism [1]: no tendency for AP-28 to accumulate in the organism
effects on awakening (blunting or grogginess) [2]: no blunting or grogginess of their minds when they woke up; also recorded: no apparent effects on awakening
Number animals died [3]: 0/8
Number animals with clonic convulsions ([3]; in parentheses number treated): 8(8)
Number animals with tonic convulsions ([3]; in parentheses number treated): 0(8)
rate of urine excretion ([4]; 500 mg/kg oral daily for 5 subsequent days): the rate of urine excretion was slowed
diuresis ([4]; single 500 mg/kg oral dose): No treatment caused any significant change
adverse effects [5]: No adverse effects were observed
choleresis (Choleresis): No treatment caused any significant change
mean infusion time to cause animals to die ([6]; AP-28 250 mg/kg, control 260 ± 13.4): 360 ± 21.2 s
mean infusion time to cause animals to die (mean ± SE) ([6]; AP-28 500 mg/kg, 15 minutes prior, strychnine infusion 0.4 ml/min, control 134 ± 3.2): 210 ± 6.1 s
mean infusion time to cause animals to die ([6]; AP-28 500 mg/kg, control 246 ± 3.1): 338 ± 24.3 s
somnolence, daily torpor or motive conceptual slowness [7]: in no case somnolence, daily torpor or motive conceptual slowness were observed; also recorded: without causing daily drowsiness or torpor
disorders or difficulty in usual working activity ([7]; outpatients): No outpatient reported disorders or difficulty in carrying out their usual working activity
lowering of anti-epileptic massive therapy, fourth patient [8]: more than 50%
Animals with convulsions/treated ([9]; 250 mg/kg i.p.): 7/7
Died/treated ([9]; 250 mg/kg i.p.): 1/7
Time of death ([9]; 250 mg/kg i.p., extreme values): 33 min
Animals with convulsions/treated ([9]; 500 mg/kg i.p.): 3/8
Died/treated ([9]; 500 mg/kg i.p.): 0/8
Animals with convulsions/treated ([9]; 500 mg/kg os): 5/9
Died/treated ([9]; 500 mg/kg os): 0/9
Percent reduction at 2nd measurement ([10]; 250 mg/kg i.p.): 68.1%
mobility, percent of the baseline values ([10]; 250 mg/kg i.p.): 31.9%
Percent reduction at 2nd measurement ([10]; 500 mg/kg i.p.): 76.9%
mobility, percent of the baseline values ([10]; 500 mg/kg i.p.): 23.1%
Mean number of crossings (± SE) ([10]; after treatment, 250 mg/kg i.p.): 84.1 ± 15
Mean number of crossings (± SE) ([10]; after treatment, 500 mg/kg i.p.): 50.5 ± 5
Mean number of crossings (± SE) ([10]; before treatment, 250 mg/kg i.p. group): 261.5 ± 25
Mean number of crossings (± SE) ([10]; before treatment, 500 mg/kg i.p. group): 229 ± 15
loss of the righting reflex ([11]; highest oral dose): did not cause the loss of the righting reflex
Remarks: sedated for ([11]; i.p., 250 mg/kg): about 15 minutes
Under hypnosis/treated (loss of the righting reflex) ([11]; i.p., 250 mg/kg): 0/4
Died/treated ([11]; i.p., 250 mg/kg): 0/4
Remarks: sedated for ([11]; i.p., 500 mg/kg): about 20 minutes
Under hypnosis/treated (loss of the righting reflex) ([11]; i.p., 500 mg/kg): 0/4
Died/treated ([11]; i.p., 500 mg/kg): 0/4
loss of the righting reflex ([11]; i.p., 1 g/kg): the loss of the righting reflex occurred
Remarks: under hypnosis for ([11]; i.p., 1000 mg/kg): about 15 minutes
Under hypnosis/treated (loss of the righting reflex) ([11]; i.p., 1000 mg/kg): 4/4
Died/treated ([11]; i.p., 1000 mg/kg): 0/4
Remarks: under hypnosis for ([11]; i.p., 1500 mg/kg): about 30 minutes
Under hypnosis/treated (loss of the righting reflex) ([11]; i.p., 1500 mg/kg): 4/4
Died/treated ([11]; i.p., 1500 mg/kg): 0/4
Remarks: under hypnosis for ([11]; i.p., 2000 mg/kg): about 60 minutes
Under hypnosis/treated (loss of the righting reflex) ([11]; i.p., 2000 mg/kg): 4/4
Died/treated ([11]; i.p., 2000 mg/kg): 0/4
toxicity ([11]; laboratory animals, summary statement): toxicity is nearly negligible
Under hypnosis/treated (loss of the righting reflex) [11, 12]: 0/4
Died/treated [11, 12]: 0/4
Under hypnosis/treated (loss of the righting reflex) [11, 13]: 0/4
Died/treated [11, 13]: 0/4
Under hypnosis/treated (loss of the righting reflex) [11, 14]: 0/4
Died/treated [11, 14]: 0/4
Under hypnosis/treated (loss of the righting reflex) [11, 15]: 0/4
Died/treated [11, 15]: 0/4
Under hypnosis/treated (loss of the righting reflex) [11, 16]: 0/4
Died/treated [11, 16]: 0/4
Remarks ([11]; 250 mg/kg): No particular effect
Remarks ([11]; 500 mg/kg): did not cause any particular effect
Remarks ([11]; 1000 mg/kg): Slightly sedated; also recorded: a mild sedative effect
Remarks ([11]; 1500 mg/kg): Sedated
Remarks ([11]; 2000 mg/kg (highest oral dose), 2000 mg/kg): produced a sedative effect; also recorded: Very sedated
duration of sedative and hypnotic effects ([11]; rat): not long lasting and the animal returned to normal
LD0 ([11]; rat, oral or intraperitoneal): more than 2 g/kg
arterial blood pressure (Arterial blood pressure): No treatment caused any significant change
